According to patent US10653680B2, “Treatment of impulsivity-related disorders” (OXFORD UNIVERSITY INNOVATION LIMITED, priority 2016, dated 2020):

Assays:
rats [1] = experiment: 5 Choice Serial Reaction Time Task (5-CSRTT); format: in vivo, rats (males; Long Evans)
Protocol: (§1) Testing was carried out in Vancouver (Canada) using rats (males; Long Evans from Charles River) which were given at least two weeks to acclimatise to the animal facility. They were housed in pairs on a 12 hour reverse light-dark cycle (lights off at 7 am). In the second week of acclimatisation, rats were handled briefly each day. […] For each task, there was then a habituation session to the operant boxes before training began.
(§2) Ebselen, cocaine and 2,5-dimethoxy-4-iodoamphetamine (DOI) were obtained from Sigma Aldrich, and MDL 100,907 was obtained from Tocris. Ebselen was dissolved in 0.5M DMSO and made up to injection volume (8 ml/kg) using 4% cyclodextrin. Cocaine and DOI were dissolved in 0.9% saline. MDL 100,907 was dissolved in 0.9% saline and the pH was adjusted to 6.25 using 1M NaOH and 0.1M HCl.
(§3) All data for the cognitive tasks are presented as mean+SEM change from baseline: • performance on drug day−performance on the previous day
The data were analysed with repeated measures ANOVA with dose as a within-subject factor. Where appropriate, post-hoc analysis was performed using Student's paired t-test.
This test was performed as described previously (Bari et al., Nature Protocols, 2008, 3(5), 759-767; Robbins, Psychopharmacology, 2002, 163(3), 362-380).
Fourteen rats were trained to respond to brief visual cues presented in one of five target areas with an inter-trial interval of 5 seconds. On the day of testing in the presence of ebselen, the inter-trial interval was lengthened to 7 seconds to cause a reliable increase in premature responding.
Ebselen and vehicle were administered by intraperitoneal (i.p.) injection 1 hour prior to testing. Three doses of ebselen (2, 5 or 10 mg/kg) were studied, administration being in a random order that was determined by a Latin square design. Rats were run five days a week, with the treatment day falling on day three.
Following ebselen, 3 doses of MDL 100,907 (0.01, 0.03 and 0.1 mg/kg, i.p.) were tested in a Latin square design with the first injection occurring one week after the final injection of ebselen. MDL 100,907 is a selective 5-HT2A antagonist. Rats were similarly run five days a week with injections falling on the third day, and the lengthened inter-trial interval was used only on the drug-administration day.
The Latin square design (for both the 5-CSRTT and rGT experiments) was counterbalanced, based on performance in the last training day of each task. A one week wash-out period was given between drug-administration days. A baseline session was performed both the day before and the day after treatment to ensure stable off-drug performance.

rats [2] = experiment: 5-CSRTT, stimulant (cocaine)-induced responding; format: in vivo, rats (males; Long Evans)
Protocol: as §1, §2, §3
In experiments investigating the effect of ebselen on cocaine and DOI, data were analysed with a two-way ANOVA with ebselen and cocaine/DOI as between-subject factors. If an interaction was detected, this was further investigated using simple main effects analysis. All analyses were conducted using SPSS 22 with p<0.05 considered significant.
To assess the effect of ebselen on stimulant-induced responding, ebselen (10 mg/kg) or vehicle was administered 1 hour prior to cocaine (15 mg/kg i.p.), which in turn was administered 10 minutes prior to testing. Treatments were administered using according to a Latin square design. The inter-trial interval for these sessions was 5 seconds. Two rats were excluded from the data due to increasing levels of omissions across all days of this portion of the study. The experiment was repeated using 0.03 mg/kg MDL 100,907 instead of ebselen.

`COc1cccc([C@H](O)C2CCN(CCc3ccc(F)cc3)CC2)c1OC` [MDL 100,907, reference compound] was tested, and the “accuracy (decrease seen following vehicle injection)” value (rats [1]; MDL 100,907 0.01 mg/kg (second mention), p=0.027) was “significantly negated the decrease in accuracy”, the “accuracy (decrease seen following vehicle injection)” value (rats [1]; MDL 100,907 0.01 mg/kg i.p., p=0.020) was “significantly negated the decrease in accuracy” and the “accuracy (decrease seen following vehicle injection)” value (rats [1]; MDL 100,907 0.03 mg/kg i.p., p=0.052) was “trend”. The “other parameters of the 5-CSRTT” value (rats [1]; MDL 100,907 0.01, 0.03, 0.1 mg/kg i.p., p=0.170-0.872) was “no detectable effects”, the premature responding (rats [1]; MDL 100,907 at all dosage levels (0.01, 0.03 and 0.1 mg/kg i.p.) vs vehicle, p=0.008, 0.009, 0.001) was “decreased premature responding” and the “cocaine-induced increases in premature responding” value (rats [2]; MDL 100,907 0.03 mg/kg before cocaine 15 mg/kg i.p., p=0.282) was “did not reduce cocaine-induced increases in premature responding”. For the same compound, the correct response latency (rats [2]; MDL 100,907 0.03 mg/kg, cocaine experiment, p=0.072) was “increased trend”.
